Results published in patent US10463644B2, “Uses of sesquiterpene lactone compounds and their derivatives in drugs preparation” (ACCENDATECH, priority 2013, dated 2019).
Like-named read-outs stand apart in the source and are kept apart here.

Tests used:
cancer stem cells = experiment: Survival rate of cancer stem cells after test compound is added (flow cytometry, Annexin V-FITC/PI, clinical specimen); assay type: cell-based, patient; conditions: Homo sapiens, 18 h
In short: (§1)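 Survival was determined in clinical specimens after an 18 h compound treatment, using Annexin V-FITC/PI apoptosis staining and flow cytometry.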

normal cells = experiment: Survival rate of normal cells after test compound is added (flow cytometry, Annexin V-FITC/PI); assay type: cell-based; conditions: 18 h
In short: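 Patient specimens (e.g. AML, CD34+/CD38+ stem-cell marker) separated on Ficoll; mononuclear cells at 1×10^6/mL in serum-free IMDM treated 18 h with compound. Cells stained for stem-cell markers, then Annexin V-FITC/PI, and apoptosis measured by flow cytometry within one hour.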

cancer cells = experiment: Survival rate of cancer cells after test compound is added (flow cytometry, Annexin V-FITC/PI, clinical specimen); assay type: cell-based, patient; conditions: Homo sapiens, 18 h, read-out: Survival rate (%) All cells (Stem cells and ordinary cells)
In short: as §1

[1] = tested on: IL-1β secreted by synoviocyte; experiment: Content of IL-1β in culture supernatant of synoviocyte of RA model rats given test compound; assay type: in vivo; conditions: rat RA model, dose 30 mg/kg.2d; normal control 0.16 ± 0.034, NaCl 0.49 ± 0.136; 30 mg/kg
In short: (§2)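 Content of secreted TNF-α, PGE2 and IL-1β measured in supernatants of synoviocytes cultured from RA model rats. Animals dosed at 30 mg/kg.2d; normal control and NaCl groups included.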

[2] = tested on: PGE2 secreted by synoviocyte; experiment: Content of PGE2 in culture supernatant of synoviocyte of RA model rats given test compound; assay type: in vivo; conditions: rat RA model, dose 30 mg/kg.2d; normal control 8.34 ± 1.29, NaCl 32.44 ± 10.32; 30 mg/kg
In short: as §2

[3] = Head and neck squamous cell carcinomas
[4] = read-out: Survival rate (%) All cells (Stem cells and ordinary cells)
[5] = read-out: Survival rate (%) Stem cells

CC1=C2CC[C@@](C)(O)[C@@H]2[C@H]2OC(=O)[C@@H](CN(C)C)[C@@H]2CC1 [Compound 23]
21.71 ± 2.32 ng/mL: Content of PGE2 in culture supernatant of synoviocyte (x ± s) [2]
72%: viability at 20 µM (cancer stem cells; AML) | viability at 20 µM (cancer stem cells; Colorectal cancer)
74%: viability at 20 µM (cancer stem cells; Breast cancer) | viability at 20 µM (cancer stem cells; CLL) | viability at 20 µM (cancer stem cells; Nasopharynx cancer) | viability at 20 µM (cancer stem cells; Retinoblastoma)
92%: viability at 20 µM (normal cells; [5]) | viability at 10 µM (cancer cells; AML) | viability at 10 µM (cancer cells; Prostate cancer)
89%: viability at 10 µM (cancer cells; Brain tumor) | viability at 10 µM (cancer cells; Breast cancer) | viability at 20 µM (cancer cells; Colon adenocarcinoma) | viability at 10 µM (cancer cells; Malignant melanoma) | viability at 20 µM (cancer cells; Prostate cancer)
87%: viability at 10 µM (cancer stem cells; CML) | viability at 10 µM (cancer stem cells; Glioma) | viability at 10 µM (cancer stem cells; Ovarian cancer) | viability at 10 µM (cancer stem cells; Pancreatic cancer) | viability at 20 µM (cancer cells; Glioma) | viability at 20 µM (cancer cells; Liver cancer) | viability at 10 µM (cancer cells; Lung adenocarcinoma) | viability at 20 µM (cancer cells; Lung adenocarcinoma) | viability at 20 µM (cancer cells; Skin cancer)
85%: viability at 10 µM (cancer stem cells; AML) | viability at 10 µM (cancer stem cells; Brain tumor) | viability at 10 µM (cancer stem cells; Children hepatoblastoma) | viability at 10 µM (cancer stem cells; Lung adenocarcinoma) | viability at 10 µM (cancer stem cells; Lung cancer) | viability at 10 µM (cancer stem cells; Nasopharynx cancer) | viability at 10 µM (cancer stem cells; Prostate cancer) | viability at 10 µM (cancer stem cells; Skin cancer) | viability at 20 µM (cancer cells; Brain glioma) | viability at 20 µM (cancer cells; Brain tumor) | viability at 20 µM (cancer cells; CLL) | viability at 20 µM (cancer cells; Retinoblastoma)
84%: viability at 10 µM (cancer stem cells; Brain glioma) | viability at 10 µM (cancer stem cells; Breast cancer) | viability at 10 µM (cancer stem cells; [3]) | viability at 20 µM (cancer cells; AML) | viability at 20 µM (cancer cells; Gastric cancer) | viability at 20 µM (cancer cells; Lung cancer) | viability at 20 µM (cancer cells; Ovarian cancer)
91%: viability at 10 µM (cancer stem cells; Gastrointestinal tumor) | viability at 10 µM (cancer cells; CML) | viability at 10 µM (cancer cells; Colon adenocarcinoma) | viability at 10 µM (cancer cells; [3]) | viability at 10 µM (cancer cells; Ovarian cancer) | viability at 10 µM (cancer cells; Retinoblastoma)
75%: viability at 20 µM (cancer stem cells; Ovarian cancer) | viability at 20 µM (cancer stem cells; Skin cancer)
93%: viability at 10 µM (normal cells; [5]) | viability at 10 µM (cancer cells; Children hepatoblastoma)
81%: viability at 20 µM (cancer stem cells; Colon adenocarcinoma) | viability at 20 µM (cancer cells; Colorectal cancer) | viability at 20 µM (cancer cells; Nasopharynx cancer)
79%: viability at 20 µM (cancer stem cells; Children hepatoblastoma) | viability at 10 µM (cancer stem cells; Colorectal cancer) | viability at 10 µM (cancer stem cells; Laryngeal cancer) | viability at 20 µM (cancer stem cells; Liver cancer) | viability at 20 µM (cancer cells; CML)
76%: viability at 20 µM (cancer stem cells; Brain glioma) | viability at 20 µM (cancer stem cells; Glioma) | viability at 20 µM (cancer stem cells; Malignant melanoma)
88%: viability at 10 µM (cancer stem cells; Colon adenocarcinoma) | viability at 10 µM (cancer cells; Brain glioma) | viability at 10 µM (cancer cells; Colorectal cancer) | viability at 20 µM (cancer cells; Gastrointestinal tumor) | viability at 20 µM (cancer cells; [3]) | viability at 10 µM (cancer cells; Laryngeal cancer) | viability at 10 µM (cancer cells; Liver cancer) | viability at 10 µM (cancer cells; Lung cancer)
78%: viability at 20 µM (cancer stem cells; [3]) | viability at 20 µM (cancer stem cells; Lung cancer)
95%: viability at 20 µM (normal cells; [4]) | viability at 10 µM (cancer cells; CLL) | viability at 10 µM (cancer cells; Skin cancer)
0.36 ± 0.065 ng/mL: Content of IL-1β in culture supernatant of synoviocyte (x ± s) [1]
90%: viability at 10 µM (cancer cells; Pancreatic cancer)
82%: viability at 10 µM (cancer stem cells; Gastric cancer) | viability at 20 µM (cancer stem cells; Gastrointestinal tumor) | viability at 10 µM (cancer stem cells; Liver cancer) | viability at 20 µM (cancer stem cells; Lung adenocarcinoma) | viability at 10 µM (cancer stem cells; Malignant melanoma) | viability at 10 µM (cancer stem cells; Retinoblastoma) | viability at 20 µM (cancer cells; Laryngeal cancer)
86%: viability at 10 µM (cancer stem cells; CLL) | viability at 20 µM (cancer cells; Breast cancer) | viability at 20 µM (cancer cells; Children hepatoblastoma) | viability at 10 µM (cancer cells; Gastric cancer) | viability at 20 µM (cancer cells; Malignant melanoma) | viability at 20 µM (cancer cells; Pancreatic cancer)
94%: viability at 10 µM (cancer cells; Gastrointestinal tumor) | viability at 10 µM (cancer cells; Glioma) | viability at 10 µM (cancer cells; Nasopharynx cancer)
77%: viability at 20 µM (cancer stem cells; Gastric cancer) | viability at 20 µM (cancer stem cells; Pancreatic cancer) | viability at 20 µM (cancer stem cells; Prostate cancer)
73%: viability at 20 µM (cancer stem cells; Brain tumor) | viability at 20 µM (cancer stem cells; Laryngeal cancer)
96%: viability at 10 µM (normal cells; [4])
71%: viability at 20 µM (cancer stem cells; CML)
